In PubChem BioAssay (NCI) one finds TGI data, which are given here for 14 compounds.

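A five-concentration, 48-hour dose response in 96-well plates underlies each endpoint, interpolated linearly between surrounding concentrations. The concentration for full growth arrest is given as TGI.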

What all share (experiment): DTP human tumour cell line panel, 48 h
In test [1] the test system is HL-60(TB) leukemia.
Test [2] relates to RXF 393 renal.
Test [3] relates to U251 CNS.
Test [4] has as its system DU-145 prostate.
The test system of test [5] is MCF7 breast.
The test system of test [6] is SF-539 CNS.
Test [7] deals with OVCAR-8 ovarian.
The test system of test [8] is SF-295 CNS.
The subject of test [9] is SW-620 colon.
Test [10] deals with M14 melanoma.

As for `CC(=N\N=C\c1ccccn1)/C(C)=N/N=C(C)/C(C)=N/N=C(C)/C(C)=N/N=C/c1ccccn1`, the TGI in test [1], in test [2], in test [3], in test [4], in [5] and in test [6] was greater than 100 µM in each case. Also, the total growth inhibition concentration (TGI) in [7], in [8], in [9] and in [10] was greater than 100 µM throughout.
`C[C@H](CCC1=NCCN1)[C@H]1CC[C@H]2[C@@H]3CC[C@@H]4C[C@H](O)CC[C@]4(C)[C@H]3C[C@H](O)[C@]12C`: the TGI (usually the concentration at which net growth stops) was determined as 36 µM in test [1]; 35.9 µM in test [2]; 23.7 µM in test [3]; 28.9 µM in test [4]; 28.5 µM in test [5]; 29.5 µM in [6]. The TGI in test [7] stood at 28.8 µM; in [8] it was 29 µM; in test [9], 44.6 µM; in test [10] it was 35.6 µM.
As for `Nc1c(S(=O)(=O)O)cc(Nc2cccc(S(=O)(=O)/C=C/S(=O)(=O)O)c2)c2c1C(=O)c1ccccc1C2=O`, the TGI in test [1], in test [2], in test [3], in test [4], in test [5] and in test [6] was greater than 100 µM each time. The concentration for total growth inhibition (TGI) in [7], in test [8], in test [9] and in test [10] was greater than 100 µM throughout.
On to `O=C(NN1C(=O)C=CC1=O)c1ccccc1Nc1ccccc1C(=O)NN1C(=O)C=CC1=O`, for which the TGI in test [1], in test [2], in [3], in test [4], in [5] and in test [6] was greater than 100 µM each time. Moreover, the TGI in test [7], in test [8], in [9] and in test [10] was greater than 100 µM in each case.
Consider `COc1ccc2c(c1)CC[C@@H]1[C@@H]2CC[C@]2(C)C(=O)/C(=C/c3cc(OC)c(OC)c(OC)c3)C[C@@H]12`, for which the TGI was greater than 100 µM in test [1]; 86.8 µM in test [2]; greater than 100 µM in test [3]; greater than 100 µM in [4]; greater than 100 µM in [5]; 67 µM in test [6]. Besides, the TGI in [8] is 74.6 µM; in test [9] it was greater than 100 µM; in [10], 41.2 µM.
Take `C#CCOC(=O)C(N)CCCN=C(N)N` (centres undefined): the total growth inhibition concentration (TGI) in test [1], in [2], in test [3], in [4], in [5] and in [6] was greater than 100 µM throughout. Moreover, the TGI in test [7], in [9] and in test [10] was greater than 100 µM throughout.
As for `COc1ccc(/C=C2\CN(C)Cc3c2[nH]c(=O)c(C#N)c3-c2ccc(OC)cc2)cc1`, the TGI in test [1] is 31.8 µM; in test [2], 63.3 µM; in test [3], greater than 100 µM; in [4] it was greater than 100 µM; in test [5], greater than 100 µM; in [7], greater than 100 µM. Also, the TGI in [8], in [9] and in test [10] was greater than 100 µM throughout.
`O=C(CCCn1ccnc1[N+](=O)[O-])NCCn1ccnc1[N+](=O)[O-]`: the TGI in [1], in test [3], in [4], in test [5], in test [6] and in test [7] was greater than 100 µM throughout. For the same compound, the TGI in test [8], in [9] and in test [10] was greater than 100 µM throughout.
On to `O=C(O)C1SCCS1`, for which the TGI in test [1], in test [3], in test [4], in test [5], in test [7] and in test [8] was greater than 100 µM in each case. The TGI in [9] and in test [10] was greater than 100 µM each time.
On to `Cc1c(F)c(N)c2c(=O)cc(-c3ccc(NC(=O)C(N)CCCN=C(N)N)c(F)c3)oc2c1F` (centres undefined), for which the TGI in test [1] is greater than 100 µM; in test [2], 59.3 µM; in [3], greater than 55.3 µM; in test [4], greater than 78.9 µM; in test [6], 40.7 µM; in test [7] it was greater than 82.8 µM. Moreover, the total growth inhibition concentration (TGI) in test [8] was greater than 56 µM; in test [9], greater than 100 µM; in [10], 97.1 µM.
Turning to `COC1/C=C/C(C)C(C(C)C(OC)C(C)CCC(=O)C(C)C(C/C=C/N(C)C=O)OC)OC(=O)/C=C/C=C(\C)CC(OC)C(OC)C2=CC(=O)O[C@@H](C(C)C(OC)CC(OC)/C=C/C(C)C(O)C1)[C@H]2O` (some centres undefined), the concentration for total growth inhibition (TGI) in test [1] was 0.43 µM; in test [2], 0.263 µM; in [3], 0.301 µM; in test [5], 0.977 µM; in test [6], 0.381 µM; in test [7], 0.829 µM. The results for the TGI in test [8], in test [9] and in test [10] were 0.273 µM, 0.343 µM and 0.309 µM, respectively.
With `CN(c1ccccc1Cl)S(=O)(=O)c1ccccc1[N+](=O)[O-]`, the TGI in test [1] was greater than 100 µM; in test [2], 90 µM; in test [3], greater than 100 µM; in test [4], greater than 100 µM; in test [6] it was greater than 100 µM; in test [7], greater than 100 µM. Also, the TGI in test [8] was greater than 100 µM; in test [9], greater than 100 µM; in test [10], 46.3 µM.
For the compound `CC(C)(C)OC(=O)NCC(=O)N1CCCN(C(=O)CNC(=O)OC(C)(C)C)CC1`, the TGI in test [1], in test [2], in [3], in test [4], in [5] and in test [7] was greater than 100 µM throughout. For the same compound, the total growth inhibition concentration (TGI) in [8], in test [9] and in [10] was greater than 100 µM in each case.
For `CC(=O)OCC1OC(c2nnc(C)o2)=CC(OC(C)=O)C1OC(C)=O` (centres undefined), the TGI in test [1], in test [2], in [3], in test [4], in test [5] and in [6] was greater than 100 µM in each case. Besides, the TGI in test [7], in [8] and in test [9] was greater than 100 µM in each case.
